Data: patent publication US11618747B2, “LXR modulators with bicyclic core moiety” (OrsoBio, Inc., priority 2018, dated 2023)
pEC50: −log10 of the molar value.

Columns and labels:
full length (FL) LXRβ = target: T1, full length (FL) LXRβ (Homo sapiens, UniProt P55055, DUP175-175); assay: LXR Gal4 reporter transient transfection assay (FL-M2H Gal4β); type: cell-based; conditions: HEK293 cells, full length LXRβ; read-out: FL-M2H Gal4β (EC50 range)
T1 construct: the full length (FL) proteins of LXRα (amino acids 1-447); NP005684; NP009052; expressed in transfected cells; host or cells: HEK293
T1 sequence (P55055 with tags, fused parts or gaps DUP175-175): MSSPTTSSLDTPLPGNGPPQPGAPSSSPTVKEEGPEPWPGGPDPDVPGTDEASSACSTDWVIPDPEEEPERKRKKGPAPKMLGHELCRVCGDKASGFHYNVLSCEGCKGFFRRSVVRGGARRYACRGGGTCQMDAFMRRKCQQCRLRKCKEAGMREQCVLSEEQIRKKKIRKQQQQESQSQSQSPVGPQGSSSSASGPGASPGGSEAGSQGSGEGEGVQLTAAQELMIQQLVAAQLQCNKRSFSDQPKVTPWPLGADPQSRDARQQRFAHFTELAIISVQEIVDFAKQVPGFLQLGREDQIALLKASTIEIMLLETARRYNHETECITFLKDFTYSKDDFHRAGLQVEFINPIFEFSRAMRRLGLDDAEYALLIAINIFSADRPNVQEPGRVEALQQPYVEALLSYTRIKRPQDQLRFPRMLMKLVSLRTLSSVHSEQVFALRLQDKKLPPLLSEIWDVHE
Procedure: (§1) The tested compounds were usually dissolved, tested and stored as 20 mM stock solutions in DMSO. Since sulfonyl acetic acid derivatives tend to decarboxylate under these conditions, these stock solutions were prepared, tested and stored as 20 mM DMSO stock solutions containing 100 mM trifluoroacetic Acid (5 equivalents). Sulfonyl acetic acid derivatives are shelf stable as solid at rt for long time as reported by Griesbrecht et al. (Synlett 2010:374) or Faucher et al. (J. Med. Chem. 2004; 47:18).
(§2) LXR Gal4 Reporter Transient Transfection Assays
(§3) LXRα and LXRβ activity status was determined via detection of interaction with coactivator and corepressor proteins in mammalian two-hybrid experiments (M2H). For this, via transient transfection the full length (FL) proteins of LXRα (amino acids 1-447; NP005684; SEQ ID NO:1) or LXRβ-(amino acids 1-461; NP009052; SEQ ID NO:2) or the ligand-binding domains (LBD) of LXRα (amino acids 155-447 SEQ ID NO:3) or LXRβ (amino acids 156-461; SEQ ID NO:4) were expressed from pCMV-AD (Stratagene) as fusions to the transcriptional activation domain of NFkB. As cofactors, domains of either the steroid receptor coactivator 1 (SRC1; amino acids 552-887; SEQ ID NO:5) or of the corepressor NCoR (amino acids 1906-2312; NP006302; SEQ ID NO:6) were expressed as fusions to the DNA binding domain of the yeast transcription factor GAL4 (from pCMV-BD; Stratagene). Interaction was monitored via activation of a coexpressed Firefly Luciferase Reporter gene under control of a promoter containing repetitive GAL4 response elements (vector pFRLuc; Stratagene). Transfection efficiency was controlled via cotransfection of constitutively active pRL-CMV Renila reniformis luciferase reporter (Promega). HEK293 cells were grown in minimum essential medium (MEM) with 2 mM L-glutamine and Earle's balanced salt solution supplemented with 8.3% fetal bovine serum, 0.1 mM non-essential amino acids, 1 mM sodium pyruvate, at 37° C. in 5% CO2. 3.5×10^4 cells/well were plated in 96-well cell culture plates in growth medium supplemented with 8.3% fetal bovine serum for 16-20 h to ˜90% confluency. For transfection, medium was taken off and LXR and cofactor expressing plasmids as well as the reporter plasmids are added in 30 μL OPTIMEM/well including polyethylene-imine (PEI) as vehicle. Typical amounts of plasmids transfected/well: pCMV-AD-LXR (5 ng), pCMV-BD-cofactor (5 ng), pFR-Luc (100 ng), pRL-CMV (0.5 ng). Compound stocks were prepared in DMSO, prediluted in MEM to a total volume of 120 μL, and added 4 h after addition of the transfection mixture (final vehicle concentration not exceeding 0.2%). Cells were incubated for additional 16 h, lysed for 10 min in 1× Passive Lysis Buffer (Promega) and Firefly and Renilla luciferase activities were measured sequentially in the same cell extract using buffers containing D-luciferine and coelenterazine, respectively. Measurements of luminescence were done in a BMG-luminometer.

full length (FL) LXRα = target: T2, full length (FL) LXRα (Homo sapiens, UniProt Q13133); assay: LXR Gal4 reporter transient transfection assay (FL-M2H Gal4α); type: cell-based; conditions: HEK293 cells, full length LXRα; read-out: FL-M2H Gal4α (EC50 range)
T2 construct: the full length (FL) proteins of LXRα (amino acids 1-447); NP005684; expressed in transfected cells; host or cells: HEK293
T2 sequence (Q13133 1-447): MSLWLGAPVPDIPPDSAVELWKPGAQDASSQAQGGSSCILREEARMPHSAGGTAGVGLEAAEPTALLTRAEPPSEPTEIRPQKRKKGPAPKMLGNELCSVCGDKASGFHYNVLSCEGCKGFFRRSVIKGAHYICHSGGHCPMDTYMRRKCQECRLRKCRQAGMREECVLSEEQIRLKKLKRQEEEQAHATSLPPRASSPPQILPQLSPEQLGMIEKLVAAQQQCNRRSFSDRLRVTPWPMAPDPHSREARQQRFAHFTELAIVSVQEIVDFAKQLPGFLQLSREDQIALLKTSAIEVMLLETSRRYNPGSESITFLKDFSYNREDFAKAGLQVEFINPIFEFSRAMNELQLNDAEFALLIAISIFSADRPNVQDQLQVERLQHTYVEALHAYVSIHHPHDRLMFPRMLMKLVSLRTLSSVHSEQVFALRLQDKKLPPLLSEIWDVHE
Procedure: as §1, §2, §3

[1] = target: T3, LXRβ ligand-binding domain (Homo sapiens, UniProt P55055, DUP175-175); assay: TR-FRETβ activity assay (NCoA3 coactivator peptide recruitment); type: biochemical; conditions: TR-FRET, 1 μM 24(S)-25-epoxycholesterol prestimulation; read-out: FRETβ (EC50 range)
T3 construct: amino acids 156-461; NP009052; made in house; host or cells: E. coli
T3 sequence (P55055 with tags, fused parts or gaps DUP175-175 limits assumed): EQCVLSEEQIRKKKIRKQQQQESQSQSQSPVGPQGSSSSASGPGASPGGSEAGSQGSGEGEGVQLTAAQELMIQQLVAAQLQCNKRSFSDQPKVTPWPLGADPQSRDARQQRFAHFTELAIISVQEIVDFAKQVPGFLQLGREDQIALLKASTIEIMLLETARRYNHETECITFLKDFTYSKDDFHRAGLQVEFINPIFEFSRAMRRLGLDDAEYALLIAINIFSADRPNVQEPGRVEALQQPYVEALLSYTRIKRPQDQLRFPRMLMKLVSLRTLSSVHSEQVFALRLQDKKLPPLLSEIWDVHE
Procedure: as §1
Recombinant GST-LXRPβ ligand-binding domain (LBD; amino acids 156-461; NP009052; SEQ ID NO:4) was expressed in E. coli and purified via gluthatione-sepharose affinity chromatography. N-terminally biotinylated NCoA3 coactivator peptide (SEQ ID NO:7) was chemically synthesized (Eurogentec). Assays were done in 384 well format (final assay volume of 25 μL/well) in a Tris/HCl buffer (pH 6.8) containing KCl, bovine serum albumin, Triton-X-100 and 1 μM 24(S)-25-epoxycholesterol as LXR-prestimulating agonist. Assay buffer was provided and test articles (potential LXR inverse agonists) were titrated to yield final assay concentrations of 50 μM, 16.7 μM, 5.6 μM, 1.9 μM, 0.6 μM, 0.2 μM, 0.07 μM, 0.02 μM, 0.007 μM, 0.002 μM with one vehicle control. Finally, a detection mix was added containing anti GST-Tb cryptate (CisBio; 610SAXLB) and Streptavidin-XL665 (CisBio; 610SAXLB) as fluorescent donor and acceptor, respectively, as well as the coactivator peptide and LXRβ-LBD protein (SEQ ID NO:4). The reaction was mixed thoroughly, equilibrated for 1 h at 4° C. and vicinity of LXRβ and coactivator peptide was detected by measurement of fluorescence in a VictorX4 multiplate reader (PerkinElmer Life Science) using 340 nm as excitation and 615 and 665 nm as emission wavelengths. Assays were performed in triplicates.
Final Assay Concentrations of Components:
240 mM KCl, 1 μg/μL BSA, 0.002% Triton-X-100, […] anti GST-Tb cryptate, 2.5 ng/μL Streptavidin-XL665, coactivator peptide (400 nM), LXRβ protein (530 μg/mL, i.e. 76 nM).

SMILES | pEC50 (full length (FL) LXRβ) | pEC50 (full length (FL) LXRα) | pEC50 [1]
Cc1ccc(S(=O)(=O)n2c(-c3cccc([C@@H]4C[C@H]4C(=O)O)c3)c(-c3ccsc3C#N)c3ncccc32)cc1 (relative stereo) [Example 4, trans-2-(3-(3-(2-Cyanothioahen-3-yl)-1-tosyl-1H-pyrrolo[3,2-b]pyridin-2-yl)phenyl)cyclopropane-1-carboxylic Acid] | 6.00 to 7.00 | > 7.00 | 5.00 to 6.00
Cc1cccc(C#N)c1-c1c(-c2cccc(-c3ccc(C(=O)O)cc3Cl)c2)n(S(=O)(=O)c2ccc(C(F)F)cc2)c2ccc(F)cc12 (single isomer, unassigned) [41/1, 2-chloro-3′-(3-(2-cyano-6-methylphenyl)-1-((4-(difluoro-methyl)phenyl)sulfonyl)-5-fluoro-1H-indol-2-yl)-[1,1′-biphenyl]-4-carboxylic Acid] | > 7.00 | > 7.00 | > 7.00
Cc1cccc(C#N)c1-c1c(-c2cccc(-c3ccc(C(=O)O)cc3Cl)c2)n(S(=O)(=O)c2ccc(C(F)F)cc2)c2ccc(F)cc12 (single isomer, unassigned) [41/2, 2-chloro-3′-(3-(2-cyano-6-methylphenyl)-1-((4-(difluoro-methyl)phenyl)sulfonyl)-5-fluoro-1H-indol-2-yl)-[1,1′-biphenyl]-4-carboxylic Acid] |  | > 7.00 | > 7.00
COC(=O)c1ccc(-c2cccc(-c3c(-c4c(C)cccc4C#N)c4cc(F)ccc4n3S(=O)(=O)c3ccc(C(F)F)cc3)c2)c(Cl)c1 [1/122] | > 7.00 | > 7.00 | 6.00 to 7.00
N#Cc1cccc(C#N)c1-c1c(-c2cccc(Br)c2)n(S(=O)(=O)c2ccc(C(F)F)cc2)c2ccc(F)cc12 [1/139] | > 7.00 | > 7.00 | 6.00 to 7.00
Cc1ccc(S(=O)(=O)n2c(-c3cccc(-c4ccc(CN)cc4Cl)c3)c(-c3ccsc3C#N)c3cc(F)ccc32)cc1 [2/1] | 6.00 to 7.00 | 6.00 to 7.00 | 6.00 to 7.00
Cc1ccc(S(=O)(=O)n2c(-c3cccc(-c4ccc(C(C)(C)N)cc4Cl)c3)c(-c3ccsc3C#N)c3cc(F)ccc32)cc1 [2/2] | 6.00 to 7.00 | 6.00 to 7.00 | 6.00 to 7.00
Cc1ccc(S(=O)(=O)n2c(-c3cccc(-c4cc(F)c(CO)c(S(C)(=O)=O)c4)c3)c(-c3ccsc3C#N)c3cc(F)ccc32)cc1 [2/16] | > 7.00 | > 7.00 | > 7.00
Cc1ccc(S(=O)(=O)n2c(-c3cccc(-c4ccc(C(C)(C)C(=O)O)c(S(C)(=O)=O)c4)c3)c(-c3ccsc3C#N)c3cc(F)ccc32)cc1 [2/18] | > 7.00 | 6.00 to 7.00 | 6.00 to 7.00
Cc1ccc(S(=O)(=O)n2c(-c3cccc(C4(C)CC4C(=O)O)c3)c(-c3ccsc3C#N)c3cc(F)ccc32)cc1 (centres unmarked) [3/1] | 6.00 to 7.00 | 6.00 to 7.00 | 6.00 to 7.00
Cc1ccc(S(=O)(=O)n2c(-c3cccc(C4(C)CC4C(=O)O)c3)c(-c3ccsc3C#N)c3cc(F)ccc32)cc1 (centres unmarked) [3/2] | > 7.00 | 6.00 to 7.00 | 5.00 to 6.00
COc1sccc1-c1c(-c2cccc(N3CC(C(=O)O)C3)c2)n(S(=O)(=O)c2ccc(C)cc2)c2ccc(F)cc12 [3/3] | 6.00 to 7.00 | 6.00 to 7.00 | 5.00 to 6.00
Cc1ccc(S(=O)(=O)n2c(-c3cccc(N4CC(C(=O)O)C4)c3)c(-c3ccsc3C(F)F)c3cc(F)ccc32)cc1 [3/4] | > 7.00 | 6.00 to 7.00 | 6.00 to 7.00
Cc1ccc(S(=O)(=O)n2c(-c3cccc(N4CC(C(=O)O)C4)c3)c(-c3ccsc3C=O)c3cc(F)ccc32)cc1 [3/5] | 6.00 to 7.00 | 6.00 to 7.00 | 6.00 to 7.00
N#Cc1sccc1-c1c(-c2cccc(N3CC(C(=O)O)C3)c2)n(S(=O)(=O)c2ccc(OC(F)F)cc2)c2ccc(F)cc12 [3/11] |  | 6.00 to 7.00 | 5.00 to 6.00
CC(O)(C(=O)O)c1ccc(-c2cccc(-c3c(-c4c(C#N)cccc4C#N)c4cc(F)ccc4n3S(=O)(=O)c3ccc(C(F)F)cc3)c2)c(Cl)c1 (centres unmarked) [11/60] | > 7.00 | > 7.00 | 
N#Cc1cccc(C#N)c1-c1c(-c2cccc(-c3ccc(C(=O)O)cc3Cl)c2)n(S(=O)(=O)c2ccc(C(F)F)cc2)c2cc(F)c(O)cc12 [Example 44, 2-Chloro-3′-(3-(2,6-dicyanophenyl)-1-((4-(difluoromethyl)phenyl)sulfonyl)-6-fluoro-5-hydroxy-1H-indol-2-yl)-[1,1′-biphenyl]-4-carboxylic Acid] | > 7.00 |  | 6.00 to 7.00
